We go through 84 compounds from PubChem BioAssay AID2765 (Broad Institute, 2010).

The test system of this assay is MEF A1-2A-BIM cells, caspase 3/7 luminescence, 3 h. Put plainly: caspase activation in A1-2A-BIM MEF cells, dose response, A1 inhibitor project, cell-based, luminescence, retest (AID 2765).

Activity calls are given as the source filed them.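 Rule for the calls: active = half-maximal concentration for the rise in caspase light signal at or below ten times the top tested dose; inconclusive = flat fit between 30% and 70% activity, or unreliable curve fit; inactive = the rest.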

`COc1ccc(-c2nc(NC(=O)c3n[nH]c(=O)c4ccccc34)sc2C)cc1`: the EC50 was > 35 µM (inactive).

For the compound `O=C1C2C3C=CC(CO)(O3)C2C(=O)N1c1ccc(-c2ccccc2)cc1` (centres undefined), the EC50 was > 35 µM (inactive). As for `CCc1ccccc1NC(=O)CN(C)C(=O)Cn1ncc(Cl)c(Cl)c1=O`, the EC50 is > 35 µM (inactive). As for `Cc1ccc(OC(=O)C2CCN(C(=O)c3ccccc3C)CC2)c(Br)c1`, the EC50 was > 35 µM (inactive).

Consider `C[C@H](CO)N1C[C@H](C)[C@@H](CN(C)C(=O)NC2CCCCC2)Oc2c(NS(=O)(=O)c3cn(C)cn3)cccc2C1=O`, for which the EC50 was > 35 µM (inactive). The result for `CCOc1ccccc1NC(=O)c1nc(S(=O)(=O)Cc2cccc(C)c2)ncc1Cl` reads > 35 µM (inactive); that for `Cc1ccc2c(c1)C(=O)C(=O)N2Cc1ccc(Cl)cc1`, > 35 µM (inactive); that for `CCOC(=O)COc1ccc(S(=O)(=O)N2CCN(c3ccc(OC)cc3)CC2)cc1`, > 35 µM (inactive).

As to `CCCS(=O)(=O)C/C(N)=N/OC(=O)c1ccc(Cl)cc1`, the EC50 was > 35 µM (inactive). In the case of `Cc1ccccc1Nc1nc(-c2sc(NC(=O)c3cccc(Cl)c3)nc2C)cs1`, the EC50 was > 35 µM (inactive). `CN(C)CC#CCCCCCCC#CCN(C)C`: the EC50 was > 35 µM (inactive).

With `COc1ccc(NC(=O)CSc2nc3ccc(Nc4nc(N5CCOCC5)nc(N5CCOCC5)n4)cc3s2)cc1`, the EC50 was > 35 µM (inactive). With `COc1ccc(C2CC(c3c(O)cc(C)oc3=O)=NCCS2)c(OC)c1` (centres undefined) the figure was > 35 µM (inactive); with `CCN(CC)c1ccc2c(c1)oc(=O)c1c(Cl)cc(=O)oc12`, > 35 µM (inactive). With `NS(=O)(=O)c1ccc(N/N=C/c2cn(-c3ccccc3)nc2-c2ccccc2)c([N+](=O)[O-])c1`, the concentration giving a half-maximal response (EC50) was 27.1 µM. In the case of `CC(Oc1ccccc1)C(=O)N1CCN=C1SCc1ccccc1` (centres undefined), the EC50 is > 35 µM (inactive).

For `CC(C)NCC(O)c1ccc(NS(C)(=O)=O)cc1` (centres undefined), the EC50 was > 35 µM (inactive).

Consider `COC(=O)C1CSC(c2ccc(Cl)cc2)N1C(=O)c1ccccc1` (centres undefined), for which the EC50 is > 35 µM (inactive). With `NS(=O)(=O)c1ccc(CCNC(=O)c2ccc3c(c2)OCCO3)cc1`, the EC50 was > 35 µM (inactive). With `Cc1ccc(N=C2C(=O)Nc3ccc(C)c(Br)c32)cc1` the figure was > 35 µM (inactive). Turning to `O=C(O)c1cccc(CSc2nc(-c3ccc(Cl)cc3)cc(C(F)(F)F)n2)c1`, the EC50 was > 35 µM (inactive).

For `Cc1c(O)c(=O)ccn1Cc1ccccc1`, the EC50 is > 35 µM (inactive). With `Cc1cc(C(C#N)c2ccc(Cl)cc2)c(Cl)cc1NC(=O)c1cc(I)cc(I)c1O` (centres undefined), the EC50 was > 35 µM (inactive). On to `CC(C)(C)OC(=O)n1cc(CCO)c2ccccc21`, for which the EC50 was > 35 µM (inactive). `COc1ccc2c(c1)CCc1c(C(=O)Nc3cc(C)n(Cc4ccc(Cl)cc4)n3)noc1-2`: the EC50 was 15 µM. For the compound `O=C1C=CC(=O)N1c1cccc(-c2ccccc2)c1`, the EC50 was > 35 µM (inactive). `COc1cc(/C=C(/C#N)C(=O)NCCc2c[nH]c3ccccc23)ccc1OCc1ccccc1F`: the EC50 is > 35 µM (inactive). `O=C(O)COc1ccccc1C=NNc1ccc([N+](=O)[O-])cc1S(=O)(=O)Nc1ccc(Cl)cc1`: the EC50 is > 35 µM (inactive). Take `CCOc1cc(C(=O)CSc2nnc(CNc3ccc(Cl)cc3)o2)ccc1NC(=O)CC`: the concentration giving a half-maximal response (EC50) is 16 µM. With `O=C(NCc1ccccc1)c1ccc(C(=O)N(C2CCCCC2)C2CCCCC2)cc1` the figure was > 35 µM (inactive); with `CCN(CC)C(=O)Oc1ccc(Br)c2ccccc12`, > 35 µM (inactive); with `CCOC(=O)c1ccc(NS(=O)(=O)c2ccc3c(c2)CCCN3C(C)=O)cc1`, > 35 µM (inactive). `O=C(COc1ccccc1[N+](=O)[O-])Nc1ccc(NC(=O)c2cc3ccccc3o2)cc1`: the EC50 was 27.4 µM. Consider `O=C(CCC(=O)N1CCN(c2ccccc2F)CC1)N1CCN(c2ccccc2)CC1`, for which the EC50 was > 35 µM (inactive).

`COc1ccc2c(-c3cc4ccc(OCc5ccc(F)cc5)cc4oc3=O)cc(=O)oc2c1`: the EC50 was 30.1 µM. `CCOC(=O)/C=c1\s/c(=C\c2ccc(C(=O)OC)cc2)c(=O)n1CC(=O)Nc1ccccc1`: the EC50 was > 35 µM (inactive). `O=C1C(=O)N(C/C=C/c2ccccc2)c2ccccc21`: the EC50 is > 35 µM (inactive).

Regarding `CC1CCc2nn(CC(=O)NCCCN3CCCC3=O)cc2C1` (centres undefined), the EC50 was > 35 µM (inactive). With `COC(=O)C1=C(c2ccc(F)cc2F)C[C@@H]2CC[C@H]1N2C(=O)N1CCC(O)CC1`, the EC50 was > 35 µM (inactive).

With `CCOC(=O)CCCNS(=O)(=O)c1c(C)ccc2nsnc12`, the EC50 is > 35 µM (inactive). Consider `O=C(O)c1ccc2c(c1)C(=O)N(c1ccc(Cl)cn1)C2=O`, for which the EC50 was > 35 µM (inactive). As to `CSc1ccccc1NC(=O)CCn1c(=O)sc2ccccc21`, the EC50 is > 35 µM (inactive). For the compound `CCCCC1CCC(C(=O)N(CC(C)C)c2c(N)n(Cc3ccccc3)c(=O)[nH]c2=O)CC1` (centres undefined), the EC50 is 5.65 µM. As for `COc1ccc(-n2ncc3c2CC(C)(C)CC3NC(=O)Cc2nonc2C)cc1` (centres undefined), the EC50 was > 35 µM (inactive). Take `O=C1/C(=C/c2ccc(N3CCOCC3)o2)SC(=Nc2ccccc2)N1CCc1c[nH]c2ccccc12`: the EC50 is 9.16 µM. Turning to `CC(C)CCN1NC2(CCCC(C)C2)NC1=S` (centres undefined), the EC50 is > 35 µM (inactive). With `NC(=O)OCCCc1ccccc1` the figure was > 35 µM (inactive); with `COC(=O)c1ccc(NC(=O)C2CC(=O)N(c3ccc(C)cc3)C2)cc1` (centres undefined), > 35 µM (inactive). With `Cc1cc(C)cc(N(CC(=O)Nc2cccc(C)c2C)S(=O)(=O)c2c(C)[nH]c(=O)[nH]c2=O)c1`, the EC50 was > 35 µM (inactive). In the case of `Cc1cccc(NC(=O)CCC(=O)N/N=C/c2ccco2)c1C`, the EC50 was > 35 µM (inactive). Turning to `COc1ccc(C(=O)NNC(=O)CSc2nc3c(c(=O)n(C)c(=O)n3C)n2C)cc1`, the EC50 is > 35 µM (inactive). With `C=CC[C@@H](CC(=O)N[C@@H](CO)Cc1ccccc1)C(=O)N[C@H](COC(=O)[C@H](CC=C)CC(=O)OC(C)(C)C)Cc1ccccc1`, the EC50 was > 35 µM (inactive). Take `Cc1cccc(Nc2nc(N)c([N+](=O)[O-])c(N3CCCC(C)C3)n2)c1` (centres undefined): the EC50 is > 35 µM (inactive).

As to `CCN(C(=O)CCN1C(=O)c2ccccc2S1(=O)=O)c1ccccc1`, the EC50 is > 35 µM (inactive). `O=C(CBr)Nc1c2c(nn1-c1ccccc1)CSC2`: the EC50 was > 35 µM (inactive).

Take `CC(C)(C)c1ccc(C(=O)Nc2ccc(O)c3c(=O)cc(-c4cccc(Cl)c4)oc23)cc1`: the EC50 was > 35 µM (inactive). On to `CCOC(=O)CSCC(=O)N1N=C(c2cccs2)CC1c1ccc(F)cc1` (centres undefined), for which the EC50 is > 35 µM (inactive). As for `CCOc1ccccc1C(=O)N[C@H](C(=O)OCc1cc([N+](=O)[O-])cc2c1OCOC2)C(C)C`, the EC50 was > 35 µM (inactive). With `CCS(=O)(=O)c1ncc(Cl)c(C(=O)Nc2ccc(S(=O)(=O)N3CCC(C)CC3)cc2)n1`, the EC50 was > 35 µM (inactive).

`Cc1cccc(NC(=O)/C(C#N)=C/c2cn(CC(=O)NCc3ccco3)c3ccccc23)c1`: the EC50 was 21.7 µM. For `Cc1ccc(OCCC(=O)Nc2ccc(C)c(F)c2)cc1`, the EC50 is > 35 µM (inactive).

As to `CC(=O)Nc1ccc(S(=O)(=O)N2CCCC3CCCCC32)cc1` (centres undefined), the EC50 is > 35 µM (inactive). `CCN(CC)S(=O)(=O)c1cc(C(=O)Nc2ccccc2[N+](=O)[O-])ccc1Cl`: the EC50 is > 35 µM (inactive). As for `COc1ccc(S(=O)(=O)Nc2ccc(NC(C)=O)cc2)cc1`, the EC50 was > 35 µM (inactive).

Consider `CCCNC(=O)c1ccc(COc2ccc(Cl)cc2)o1`, for which the EC50 is > 35 µM (inactive). Consider `CC(=O)OC[C@]12CC[C@H]3[C@@](C)(CC[C@H]4C(C)(C)CCC[C@]34C)[C@@H]1C[C@@H](C1=CC(=O)O[C@@H]1OC(C)=O)O2`, for which the half-maximal effective concentration (EC50) was 4.98 µM. For `Clc1ccccc1CN(Cc1ccccc1)c1ncnc2nc[nH]c12`, the EC50 is > 35 µM (inactive). For `CCOc1cccc(C2C(C(=O)c3ccc(C)o3)=C(O)C(=O)N2Cc2ccncc2)c1` (centres undefined), the EC50 is > 35 µM (inactive). Turning to `O=C(Cn1[nH]c(=O)c2ccccc2c1=O)OCC(=O)N1CCc2ccccc2C1`, the EC50 was > 35 µM (inactive). As for `O=C(/C=C/c1cccc(Cl)c1)c1ccc([N+](=O)[O-])o1`, the EC50 was > 35 µM (inactive). With `CCOC(=O)c1cccc(NC(=O)CN(c2ccc(C)cc2)S(=O)(=O)c2c(C)noc2C)c1` the figure was > 35 µM (inactive); with `Cc1ccc2c(C(=O)N3CCN(c4ccccc4)CC3)cc(-c3cccnc3)nc2c1C`, > 35 µM (inactive). As to `CC1(C)c2cc(O)ccc2OC1N1CCOCC1` (centres undefined), the EC50 was > 35 µM (inactive). Regarding `Cc1cc(C)cc(NC(=O)/C(C#N)=C/c2cn(CC(=O)NCc3ccco3)c3ccccc23)c1`, the half-maximal effective concentration (EC50) is 4.65 µM.

As for `O=C(c1ccccc1)c1n[nH]c(-c2ccccc2)cc1=O`, the EC50 is > 35 µM (inactive).

For the compound `CCc1ccc(NC(=O)c2nc(S(=O)(=O)Cc3ccccc3)ncc2Cl)cc1`, the EC50 was > 35 µM (inactive). Regarding `CCCCCCC(=O)Nc1cc2c(C)cc(=O)oc2cc1C`, the EC50 is > 35 µM (inactive). Take `Cc1n[nH]c(C)c1S(=O)(=O)N1CCC(C(=O)O)CC1`: the EC50 is > 35 µM (inactive). For `CCn1c(SCC(=O)c2ccccc2)nnc1-c1cc2cc(Br)ccc2o1`, the EC50 was > 35 µM (inactive). With `CCOc1cc(/C=C\[N+](=O)[O-])ccc1OCC(=O)Nc1ccccc1C` the figure was 3.67 µM.

Take `O=C1NCCCC1C(=O)N/N=C/c1cccc([N+](=O)[O-])c1` (centres undefined): the EC50 is > 35 µM (inactive). For the compound `CCOC(=O)CSC1=N/C(=C/c2ccc(-n3cncn3)cc2)C(=O)N1C(C)=O`, the half-maximal effective concentration (EC50) is 25.6 µM.

In the case of `O=C(NCCc1ccc(Cl)cc1)C1CCCN(S(=O)(=O)N2CCCCCC2)C1` (centres undefined), the EC50 was > 35 µM (inactive). Turning to `COc1ccccc1CCC(=O)Nc1ccc(S(=O)(=O)Nc2nccs2)cc1`, the EC50 is > 35 µM (inactive).

The EC50 is the concentration needed to bring the measured effect to its halfway point.
